Measured values from ChEMBL document CHEMBL4507283, “Data for DCP probe BI-1935” (2021).

Key:
[1] = biological target: Serine/threonine-protein kinase PAK 1 (Homo sapiens) (UniProt Q13153); conditions: Compound concentration 1000.0 nM
[2] = biological target: Fibroblast growth factor receptor 2 (Homo sapiens) (UniProt P21802); conditions: Compound concentration 1000.0 nM
[3] = biological target: Cyclin-dependent kinase 11B (Homo sapiens) (UniProt P21127); conditions: Compound concentration 1000.0 nM
[4] = biological target: NT-3 growth factor receptor (Homo sapiens) (UniProt Q16288); conditions: Compound concentration 1000.0 nM
[5] = system: Tyrosine-protein kinase ABL1 (Homo sapiens), P00519 [F317I]; conditions: Compound concentration 1000.0 nM
[6] = biological target: Mitogen-activated protein kinase kinase kinase kinase 5 (Homo sapiens) (UniProt Q9Y4K4); conditions: Compound concentration 1000.0 nM
[7] = biological target: D(2) dopamine receptor (Homo sapiens) (UniProt P14416); conditions: Compound concentration 10.0 uM
[8] = biological target: Serine/threonine-protein kinase Nek7 (Homo sapiens) (UniProt Q8TDX7); conditions: Compound concentration 1000.0 nM
[9] = biological target: Serine/threonine-protein kinase Sgk3 (Homo sapiens) (UniProt Q96BR1); conditions: Compound concentration 1000.0 nM
[10] = biological target: Activated CDC42 kinase 1 (Homo sapiens) (UniProt Q07912); conditions: Compound concentration 1000.0 nM
[11] = biological target: Tyrosine-protein kinase receptor Tie-1 (Homo sapiens) (UniProt P35590); conditions: Compound concentration 1000.0 nM
[12] = biological target: Ribosomal protein S6 kinase alpha-5 (Homo sapiens) (UniProt O75582); conditions: Compound concentration 1000.0 nM
[13] = biological target: Mitogen-activated protein kinase kinase kinase 19 (Homo sapiens) (UniProt Q56UN5); conditions: Compound concentration 1000.0 nM
[14] = biological target: Bone morphogenetic protein receptor type-1A (Homo sapiens) (UniProt P36894); conditions: Compound concentration 1000.0 nM
[15] = biological target: Cannabinoid receptor 1 (Homo sapiens) (UniProt P21554); assay: CB1/H Eurofins-Panlabs selectivity data (BI); conditions: Compound concentration 10.0 uM
[16] = biological target: Hepatocyte growth factor receptor (Homo sapiens) (UniProt P08581); conditions: Compound concentration 1000.0 nM
[17] = biological target: Dual specificity mitogen-activated protein kinase kinase 3 (Homo sapiens) (UniProt P46734); conditions: Compound concentration 1000.0 nM
[18] = system: Epidermal growth factor receptor (Homo sapiens), P00533 [L858R,T790M]; conditions: Compound concentration 1000.0 nM
[19] = biological target: Non-receptor tyrosine-protein kinase TYK2 (Homo sapiens) (UniProt P29597); conditions: Compound concentration 1000.0 nM
[20] = biological target: Serine/threonine-protein kinase PAK 3 (Homo sapiens) (UniProt O75914); conditions: Compound concentration 1000.0 nM
[21] = biological target: Casein kinase II subunit alpha' (Homo sapiens) (UniProt P19784); conditions: Compound concentration 1000.0 nM
[22] = biological target: T1, Polyunsaturated fatty acid 5-lipoxygenase (Homo sapiens) (UniProt P09917); assay: 5LO Eurofins-Panlabs selectivity data (BI)
T1 sequence (whole entry): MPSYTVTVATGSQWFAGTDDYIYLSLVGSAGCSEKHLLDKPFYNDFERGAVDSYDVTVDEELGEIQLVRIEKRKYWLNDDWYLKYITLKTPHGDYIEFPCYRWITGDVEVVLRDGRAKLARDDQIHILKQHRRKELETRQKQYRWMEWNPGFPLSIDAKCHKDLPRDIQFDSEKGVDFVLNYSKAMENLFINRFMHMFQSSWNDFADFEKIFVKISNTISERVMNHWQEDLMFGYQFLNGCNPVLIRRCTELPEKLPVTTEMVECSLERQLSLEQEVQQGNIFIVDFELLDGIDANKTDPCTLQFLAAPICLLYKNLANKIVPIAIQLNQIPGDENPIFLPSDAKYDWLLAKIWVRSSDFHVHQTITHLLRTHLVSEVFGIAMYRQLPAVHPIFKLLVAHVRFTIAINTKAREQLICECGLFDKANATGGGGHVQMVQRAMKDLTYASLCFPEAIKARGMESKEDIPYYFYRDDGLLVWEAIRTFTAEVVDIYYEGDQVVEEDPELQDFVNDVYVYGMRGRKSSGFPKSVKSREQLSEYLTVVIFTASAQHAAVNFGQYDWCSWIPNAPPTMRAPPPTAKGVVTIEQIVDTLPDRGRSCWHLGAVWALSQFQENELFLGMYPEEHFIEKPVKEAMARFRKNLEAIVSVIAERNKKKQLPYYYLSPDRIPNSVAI

[23] = biological target: Serine/threonine-protein kinase 25 (Homo sapiens) (UniProt O00506); conditions: Compound concentration 1000.0 nM
[24] = biological target: Dual specificity mitogen-activated protein kinase kinase 5 (Homo sapiens) (UniProt Q13163); conditions: Compound concentration 1000.0 nM
[25] = biological target: Nitric oxide synthase 3 (Rattus norvegicus) (UniProt Q62600); assay: CNOS Eurofins-Panlabs selectivity data (BI); conditions: Compound concentration 10.0 uM
[26] = biological target: Tyrosine-protein kinase HCK (Homo sapiens) (UniProt P08631); conditions: Compound concentration 1000.0 nM
[27] = biological target: Ephrin type-B receptor 4 (Homo sapiens) (UniProt P54760); conditions: Compound concentration 1000.0 nM
[28] = biological target: Calcium/calmodulin-dependent protein kinase type 1 (Homo sapiens) (UniProt Q14012); conditions: Compound concentration 1000.0 nM
[29] = biological target: G protein-coupled receptor kinase 3 (Homo sapiens) (UniProt P35626); conditions: Compound concentration 1000.0 nM
[30] = system: Receptor-type tyrosine-protein kinase FLT3 (Homo sapiens), P36888 [K663Q]; conditions: Compound concentration 1000.0 nM
[31] = biological target: Serine/threonine-protein kinase Chk1 (Homo sapiens) (UniProt O14757); conditions: Compound concentration 1000.0 nM
[32] = biological target: Histamine H2 receptor (Homo sapiens) (UniProt P25021); assay: H2/H Eurofins-Panlabs selectivity data (BI); conditions: Compound concentration 10.0 uM

Sequence of NT-3 growth factor receptor (Homo sapiens) (Q16288 32-839 limits assumed): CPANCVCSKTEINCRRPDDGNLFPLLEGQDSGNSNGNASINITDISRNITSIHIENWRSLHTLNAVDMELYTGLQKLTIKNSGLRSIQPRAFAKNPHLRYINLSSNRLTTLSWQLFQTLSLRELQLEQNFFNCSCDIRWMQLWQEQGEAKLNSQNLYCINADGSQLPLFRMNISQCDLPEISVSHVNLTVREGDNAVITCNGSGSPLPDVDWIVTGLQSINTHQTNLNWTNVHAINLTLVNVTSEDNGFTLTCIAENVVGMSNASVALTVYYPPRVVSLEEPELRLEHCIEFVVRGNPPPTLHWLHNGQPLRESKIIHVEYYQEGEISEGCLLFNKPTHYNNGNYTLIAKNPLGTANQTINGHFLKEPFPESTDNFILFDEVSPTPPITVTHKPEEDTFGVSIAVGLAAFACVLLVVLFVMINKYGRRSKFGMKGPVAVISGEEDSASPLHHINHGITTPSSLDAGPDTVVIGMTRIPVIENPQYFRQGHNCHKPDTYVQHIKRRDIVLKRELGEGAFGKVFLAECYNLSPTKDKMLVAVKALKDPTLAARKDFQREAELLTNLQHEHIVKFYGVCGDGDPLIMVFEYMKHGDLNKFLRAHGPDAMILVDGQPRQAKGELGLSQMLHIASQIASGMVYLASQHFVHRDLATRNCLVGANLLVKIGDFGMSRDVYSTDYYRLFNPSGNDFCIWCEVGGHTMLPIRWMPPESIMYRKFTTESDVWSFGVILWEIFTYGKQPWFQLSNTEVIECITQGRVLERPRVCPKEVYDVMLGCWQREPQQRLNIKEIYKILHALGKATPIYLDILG
Sequence of Casein kinase II subunit alpha' (Homo sapiens) (P19784 whole entry, looked up): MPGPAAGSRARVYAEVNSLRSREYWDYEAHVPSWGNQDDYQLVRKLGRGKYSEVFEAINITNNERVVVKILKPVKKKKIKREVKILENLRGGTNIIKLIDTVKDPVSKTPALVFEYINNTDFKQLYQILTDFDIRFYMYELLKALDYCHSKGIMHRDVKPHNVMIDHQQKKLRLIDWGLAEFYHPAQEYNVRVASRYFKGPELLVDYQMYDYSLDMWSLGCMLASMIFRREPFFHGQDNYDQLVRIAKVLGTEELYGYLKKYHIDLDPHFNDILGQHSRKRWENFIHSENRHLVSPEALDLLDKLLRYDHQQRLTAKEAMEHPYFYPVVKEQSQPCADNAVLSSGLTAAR
Sequence of Tyrosine-protein kinase HCK (Homo sapiens) (P08631 2-526 limits assumed): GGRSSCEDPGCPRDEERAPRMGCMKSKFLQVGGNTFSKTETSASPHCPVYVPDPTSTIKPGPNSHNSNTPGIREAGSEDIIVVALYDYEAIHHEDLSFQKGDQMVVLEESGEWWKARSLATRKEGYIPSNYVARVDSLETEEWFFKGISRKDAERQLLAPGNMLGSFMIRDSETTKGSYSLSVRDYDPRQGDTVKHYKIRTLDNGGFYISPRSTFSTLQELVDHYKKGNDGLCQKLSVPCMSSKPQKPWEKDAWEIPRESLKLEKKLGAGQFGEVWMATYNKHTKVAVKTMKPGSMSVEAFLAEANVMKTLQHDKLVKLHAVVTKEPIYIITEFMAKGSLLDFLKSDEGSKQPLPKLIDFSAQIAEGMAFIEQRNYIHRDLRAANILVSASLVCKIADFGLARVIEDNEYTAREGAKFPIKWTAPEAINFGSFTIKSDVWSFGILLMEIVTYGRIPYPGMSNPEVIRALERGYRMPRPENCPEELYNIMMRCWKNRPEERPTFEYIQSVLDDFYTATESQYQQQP
Sequence of Cyclin-dependent kinase 11B (Homo sapiens) (P21127 whole entry): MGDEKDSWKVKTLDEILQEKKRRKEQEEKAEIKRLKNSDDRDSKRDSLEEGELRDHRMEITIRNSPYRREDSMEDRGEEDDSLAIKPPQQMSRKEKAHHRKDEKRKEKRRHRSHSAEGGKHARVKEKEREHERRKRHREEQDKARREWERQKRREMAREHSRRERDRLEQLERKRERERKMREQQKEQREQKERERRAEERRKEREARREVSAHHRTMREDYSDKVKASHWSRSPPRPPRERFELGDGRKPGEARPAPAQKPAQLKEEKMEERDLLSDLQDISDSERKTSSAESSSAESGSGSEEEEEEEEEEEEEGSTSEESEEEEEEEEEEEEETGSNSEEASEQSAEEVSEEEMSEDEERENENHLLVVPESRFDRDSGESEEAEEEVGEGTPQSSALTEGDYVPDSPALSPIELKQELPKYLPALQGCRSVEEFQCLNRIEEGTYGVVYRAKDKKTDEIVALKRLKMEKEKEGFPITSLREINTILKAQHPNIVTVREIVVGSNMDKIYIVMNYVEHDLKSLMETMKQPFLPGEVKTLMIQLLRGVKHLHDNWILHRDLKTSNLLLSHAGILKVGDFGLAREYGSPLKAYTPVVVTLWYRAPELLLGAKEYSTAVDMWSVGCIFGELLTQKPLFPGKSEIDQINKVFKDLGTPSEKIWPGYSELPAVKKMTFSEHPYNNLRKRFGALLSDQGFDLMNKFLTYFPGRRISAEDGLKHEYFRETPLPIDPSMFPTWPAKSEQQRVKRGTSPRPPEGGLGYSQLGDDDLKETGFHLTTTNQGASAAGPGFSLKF
Sequence of Serine/threonine-protein kinase PAK 3 (Homo sapiens) (O75914 whole entry, looked up): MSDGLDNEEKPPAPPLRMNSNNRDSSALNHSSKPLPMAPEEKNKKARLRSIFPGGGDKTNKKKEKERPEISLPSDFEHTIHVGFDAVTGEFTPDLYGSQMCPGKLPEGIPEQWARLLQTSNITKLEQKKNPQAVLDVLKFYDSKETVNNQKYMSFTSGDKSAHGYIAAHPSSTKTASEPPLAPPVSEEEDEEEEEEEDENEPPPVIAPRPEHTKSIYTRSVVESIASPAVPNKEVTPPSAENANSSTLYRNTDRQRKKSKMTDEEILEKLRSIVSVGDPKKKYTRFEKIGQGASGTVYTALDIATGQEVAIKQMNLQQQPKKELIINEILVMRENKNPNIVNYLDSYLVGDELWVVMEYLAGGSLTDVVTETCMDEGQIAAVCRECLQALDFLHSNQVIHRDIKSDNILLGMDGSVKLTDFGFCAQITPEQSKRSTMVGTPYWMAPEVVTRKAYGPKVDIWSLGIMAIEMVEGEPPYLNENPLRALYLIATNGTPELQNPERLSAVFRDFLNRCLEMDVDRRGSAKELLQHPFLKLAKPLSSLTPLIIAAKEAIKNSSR
Sequence of Serine/threonine-protein kinase Nek7 (Homo sapiens) (Q8TDX7 whole entry, looked up): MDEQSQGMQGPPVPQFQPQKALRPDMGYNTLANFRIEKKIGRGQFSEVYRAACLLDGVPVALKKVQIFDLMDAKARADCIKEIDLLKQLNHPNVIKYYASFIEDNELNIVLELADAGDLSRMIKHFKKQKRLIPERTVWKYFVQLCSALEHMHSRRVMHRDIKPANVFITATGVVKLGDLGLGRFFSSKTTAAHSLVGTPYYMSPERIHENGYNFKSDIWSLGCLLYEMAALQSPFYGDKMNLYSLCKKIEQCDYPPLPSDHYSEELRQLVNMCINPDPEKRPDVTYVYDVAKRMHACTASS
Sequence of Calcium/calmodulin-dependent protein kinase type 1 (Homo sapiens) (Q14012 whole entry, looked up): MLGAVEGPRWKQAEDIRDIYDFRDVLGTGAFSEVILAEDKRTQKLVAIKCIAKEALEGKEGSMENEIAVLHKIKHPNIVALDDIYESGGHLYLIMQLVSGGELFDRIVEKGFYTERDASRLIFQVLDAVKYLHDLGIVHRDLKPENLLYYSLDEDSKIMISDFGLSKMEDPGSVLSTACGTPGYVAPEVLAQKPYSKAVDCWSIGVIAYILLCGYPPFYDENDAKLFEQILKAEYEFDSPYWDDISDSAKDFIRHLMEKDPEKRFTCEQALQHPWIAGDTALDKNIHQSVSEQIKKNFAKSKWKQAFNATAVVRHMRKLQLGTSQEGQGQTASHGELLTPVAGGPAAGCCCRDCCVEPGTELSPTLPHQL
Sequence of Fibroblast growth factor receptor 2 (Homo sapiens) (P21802 22-821 limits assumed): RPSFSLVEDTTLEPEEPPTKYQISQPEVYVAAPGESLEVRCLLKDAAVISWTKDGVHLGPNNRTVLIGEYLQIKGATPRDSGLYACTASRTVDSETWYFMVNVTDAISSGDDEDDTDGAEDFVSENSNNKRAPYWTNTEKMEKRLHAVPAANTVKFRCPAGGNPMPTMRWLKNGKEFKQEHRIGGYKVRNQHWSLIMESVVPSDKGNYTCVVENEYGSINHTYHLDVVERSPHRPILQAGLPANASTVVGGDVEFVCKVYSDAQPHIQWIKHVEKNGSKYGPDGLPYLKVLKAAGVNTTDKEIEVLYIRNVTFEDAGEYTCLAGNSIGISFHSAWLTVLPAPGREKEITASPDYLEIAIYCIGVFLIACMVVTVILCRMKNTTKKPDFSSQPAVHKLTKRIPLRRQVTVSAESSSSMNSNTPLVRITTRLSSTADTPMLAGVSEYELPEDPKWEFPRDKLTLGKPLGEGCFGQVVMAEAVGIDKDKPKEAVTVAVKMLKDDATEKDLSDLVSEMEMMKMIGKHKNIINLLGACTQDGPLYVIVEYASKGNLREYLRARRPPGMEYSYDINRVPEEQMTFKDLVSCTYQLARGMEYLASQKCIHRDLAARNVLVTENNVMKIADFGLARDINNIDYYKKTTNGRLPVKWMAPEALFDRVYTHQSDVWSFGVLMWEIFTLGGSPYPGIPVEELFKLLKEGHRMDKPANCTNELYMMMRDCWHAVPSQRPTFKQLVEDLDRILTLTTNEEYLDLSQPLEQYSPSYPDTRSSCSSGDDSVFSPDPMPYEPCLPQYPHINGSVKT
Sequence of Dual specificity mitogen-activated protein kinase kinase 5 (Homo sapiens) (Q13163 whole entry): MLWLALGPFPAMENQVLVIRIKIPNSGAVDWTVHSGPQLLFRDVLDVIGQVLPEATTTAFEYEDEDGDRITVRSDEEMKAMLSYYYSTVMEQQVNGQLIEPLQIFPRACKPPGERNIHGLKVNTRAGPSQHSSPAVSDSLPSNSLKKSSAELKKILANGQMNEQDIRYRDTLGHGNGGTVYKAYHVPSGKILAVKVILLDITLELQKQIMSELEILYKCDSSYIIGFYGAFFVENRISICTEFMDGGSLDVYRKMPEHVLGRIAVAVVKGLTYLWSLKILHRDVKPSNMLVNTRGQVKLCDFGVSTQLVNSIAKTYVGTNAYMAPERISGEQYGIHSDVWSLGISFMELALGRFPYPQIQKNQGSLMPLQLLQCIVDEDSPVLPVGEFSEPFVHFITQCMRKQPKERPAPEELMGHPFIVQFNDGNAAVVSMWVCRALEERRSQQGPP

CCOCCn1cc(C(=O)Nc2ccc(-n3nc(-c4cccnc4)cc3C(F)(F)F)cn2)ccc1=O [BI 1935]
residual activity [1]: 96%
residual activity [2]: 49%
residual activity [3]: 100%
residual activity [4]: 100%
residual activity [5]: 74%
residual activity [6]: 95%
inhibition [7]: -5.62%
residual activity [8]: 100%
residual activity [9]: 65%
residual activity [10]: 81%
residual activity [11]: 81%
residual activity [12]: 100%
residual activity [13]: 75%
residual activity [14]: 70%
residual activity [15]: 81%
residual activity [16]: 95%
residual activity [17]: 83%
residual activity [18]: 96%
residual activity [19]: 100%
residual activity [20]: 100%
residual activity [21]: 100%
residual activity ([22]; Compound concentration 0.3 uM): 99%
residual activity ([22]; Compound concentration 1.0 uM): 88%
residual activity ([22]; Compound concentration 3.0 uM): 74%
residual activity ([22]; Compound concentration 10.0 uM): 27.5%
residual activity ([22]; Compound concentration 30.0 uM): 2%
residual activity [23]: 95%
residual activity [24]: 84%
residual activity [25]: 112%
residual activity [26]: 93%
residual activity [27]: 100%
residual activity [28]: 100%
residual activity [29]: 76%
residual activity [30]: 98%
residual activity [31]: 76%
residual activity [32]: 106%
